From ChEMBL document CHEMBL2396560, “Discovery of (R)-4-cyclopropyl-7,8-difluoro-5-(4-(trifluoromethyl)phenylsulfonyl)-4,5-dihydro-1H-pyrazolo[4,3-c]quinoline (ELND006) and (R)-4-cyclopropyl-8-fluoro-5-(6-(trifluoromethyl)pyridin-3-ylsulfonyl)-4,5-dihydro-2H-pyrazolo[4,3-c]quinoline (ELND007): metabolically stable γ-secretase …” (J Med Chem, 2013)
≈ marks a conversion by molar mass, not a printed value.

How the values were obtained:
[1] = Plasma concentration in FVB mouse at 3 mg/kg, po at 3 hrs; assay type: ADME, organism-based; set-up: dose 3 mg/kg, route oral
Mus musculus [2] = experiment: Reduction in amyloid beta (x to 40) in FVB mouse cortex at 1 mg/kg, po administered as single dose measured at 3 hrs; assay type: functional; set-up: scale not given: the % may be the effect or the level left
[3] = Drug uptake in FVB mouse brain at 10 mg/kg, po at 3 hrs; assay type: ADME, organism-based; set-up: dose 10 mg/kg, route oral; conditions: read-out: Drug uptake
Plasma [4] = experiment: AUC (0 to 3 hrs) in FVB mouse plasma at 3 mg/kg, po; assay type: ADME, organism-based; set-up: time < 3 hr, dose 3 mg/kg, route oral; conditions: in vivo
Mus musculus [5] = experiment: Toxicity in FVB mouse assessed as effect on Hes-1 mRNA level in thymus at 3 mg/kg, po administered as single dose measured at 3 hrs; assay type: organism-based; set-up: dose 3 mg/kg, route oral; conditions: in vivo
Plasma [6] = experiment: AUC (0 to 3 hrs) in FVB mouse plasma at 1 mg/kg, po; assay type: ADME, organism-based; set-up: time < 3 hr, dose 1 mg/kg, route oral; conditions: in vivo
[7] = Plasma concentration in FVB mouse at 30 mg/kg, po at 3 hrs; assay type: ADME, organism-based; set-up: dose 30 mg/kg, route oral
Mus musculus [8] = experiment: Reduction in amyloid beta (x to 40) in FVB mouse cortex at 30 mg/kg, po administered as single dose measured at 3 hrs; assay type: functional; set-up: scale not given: the % may be the effect or the level left
Plasma [9] = experiment: AUC (0 to 3 hrs) in FVB mouse plasma at 10 mg/kg, po; assay type: ADME, organism-based; set-up: time < 3 hr, dose 10 mg/kg, route oral; conditions: in vivo
Gamma-secretase [10] = experiment: Inhibition of partially purified human gamma-secretase-mediated cleavage of notch fusion protein measured after overnight incubation by ELISA; assay type: protein-complex assay
CHO [11] = experiment: Inhibition of gamma-secretase in CHO cells assessed expressing APPSw assessed as inhibition of amyloid beta(1 to x) secretion after overnight incubation by ELISA; assay type: cell-based; conditions: Cricetulus griseus
CHO [12] = experiment: Inhibition of gamma-secretase in CHO cells assessed expressing NotchdeltaE assessed as inhibition of notch cleavage after overnight incubation by luciferase reporter gene assay; assay type: cell-based; conditions: Cricetulus griseus
Liver microsomes [13] = experiment: Oxidative metabolism in rat liver microsomes assessed as compound remaining; assay type: ADME, Microsome
Liver [14] = experiment: Glucuronidation metabolism in dog liver microsomes assessed as compound remaining; assay type: ADME, Canis lupus familiaris, Microsome
Mus musculus [15] = experiment: Toxicity in FVB mouse assessed as effect on Hes-1 mRNA level in thymus at 30 mg/kg, po administered as single dose measured at 3 hrs; assay type: organism-based; set-up: dose 30 mg/kg, route oral; conditions: in vivo
Liver [16] = experiment: Oxidative metabolism in dog liver microsomes assessed as compound remaining; assay type: ADME, Canis lupus familiaris, Microsome
[17] = Oral bioavailability in rat; assay type: ADME, organism-based; conditions: in vivo
[18] = Drug uptake in FVB mouse brain at 30 mg/kg, po at 3 hrs; assay type: ADME, organism-based; set-up: dose 30 mg/kg, route oral; conditions: read-out: Drug uptake
Liver microsomes [19] = experiment: Glucuronidation metabolism in rat liver microsomes assessed as compound remaining; assay type: ADME, Microsome
[20] = Plasma concentration in FVB mouse at 1 mg/kg, po at 3 hrs; assay type: ADME, organism-based; set-up: dose 1 mg/kg, route oral
Mus musculus [21] = experiment: Toxicity in FVB mouse assessed as effect on Hes-1 mRNA level in thymus at 10 mg/kg, po administered as single dose measured at 3 hrs; assay type: organism-based; set-up: dose 10 mg/kg, route oral; conditions: in vivo
Homo sapiens = experiment: Hepatic toxicity in po dosed healthy human administered as gelatin capsule; assay type: organism-based; conditions: in vivo
[22] = Plasma concentration in FVB mouse at 10 mg/kg, po at 3 hrs; assay type: ADME, organism-based; set-up: dose 10 mg/kg, route oral
[23] = Drug uptake in FVB mouse brain at 3 mg/kg, po at 3 hrs; assay type: ADME, organism-based; set-up: dose 3 mg/kg, route oral; conditions: read-out: Drug uptake
[24] = Octanol-water partition co-efficient, log P of the compound by shake-flask method; assay type: physicochemical
Liver microsomes [25] = experiment: Glucuronidation metabolism in human liver microsomes assessed as compound remaining; assay type: ADME, Microsome
Liver microsomes [26] = experiment: Oxidative metabolism in human liver microsomes assessed as compound remaining; assay type: ADME, Microsome
Brain [27] = experiment: AUC (0 to 3 hrs) in FVB mouse brain at 30 mg/kg, po; assay type: ADME, organism-based; set-up: time < 3 hr, dose 30 mg/kg, route oral; conditions: in vivo
Mus musculus [28] = experiment: Toxicity in FVB mouse assessed as effect on Hes-1 mRNA level in thymus at 1 mg/kg, po administered as single dose measured at 3 hrs; assay type: organism-based; set-up: dose 1 mg/kg, route oral; conditions: in vivo
Gamma-secretase [29] = experiment: Inhibition of partially purified human gamma-secretase-mediated cleavage of MBP-APPc125Sw fusion protein measured after overnight incubation by ELISA; assay type: protein-complex assay
CHO [30] = experiment: Selctivity ratio of ED50 for gamma-secretase in CHO cells assessed expressing NotchdeltaE assessed as inhibition of notch cleavage to ED50 for gamma-secretase in CHO cells assessed expressing APPSw assessed as inhibition of amyloid beta(1 to x) secretion; assay type: cell-based; conditions: Cricetulus griseus
Liver [31] = experiment: Glucuronidation metabolism in mouse liver microsomes assessed as compound remaining; assay type: ADME, Microsome
[32] = Drug uptake in FVB mouse brain at 1 mg/kg, po at 3 hrs; assay type: ADME, organism-based; set-up: dose 1 mg/kg, route oral; conditions: read-out: Drug uptake
Brain [33] = experiment: AUC (0 to 3 hrs) in FVB mouse brain at 3 mg/kg, po; assay type: ADME, organism-based; set-up: time < 3 hr, dose 3 mg/kg, route oral; conditions: in vivo
Rattus norvegicus = species on record: Rattus norvegicus; experiment: Systemic clearance in rat relative to hepatic blood flow; assay type: ADME, organism-based, Liver; conditions: in vivo
Brain [34] = experiment: AUC (0 to 3 hrs) in FVB mouse brain at 10 mg/kg, po; assay type: ADME, organism-based; set-up: time < 3 hr, dose 10 mg/kg, route oral; conditions: in vivo
[35] = Systemic clearance in rat; assay type: ADME, organism-based; conditions: in vivo
Plasma [36] = experiment: AUC (0 to 3 hrs) in FVB mouse plasma at 30 mg/kg, po; assay type: ADME, organism-based; set-up: time < 3 hr, dose 30 mg/kg, route oral; conditions: in vivo
Mus musculus [37] = experiment: Reduction in amyloid beta (x to 40) in FVB mouse cortex at 10 mg/kg, po administered as single dose measured at 3 hrs; assay type: functional; set-up: scale not given: the % may be the effect or the level left
Liver [38] = experiment: Oxidative metabolism in mouse liver microsomes assessed as compound remaining; assay type: ADME, Microsome
[39] = molecular target: Gamma-secretase (Homo sapiens) (UniProt Q96BI3+Q9NZ42+Q8WW43+P49768+Q92542+P49810); experiment: Selctivity ratio of IC50 for partially purified human gamma-secretase-mediated cleavage of notch fusion protein to IC50 for partially purified human gamma-secretase-mediated cleavage of MBP-APPc125Sw fusion protein; assay type: protein-complex assay
[40] = Aqueous solubility of the compound; assay type: physicochemical; conditions: buffer
Brain [41] = experiment: AUC (0 to 3 hrs) in FVB mouse brain at 1 mg/kg, po; assay type: ADME, organism-based; set-up: time < 3 hr, dose 1 mg/kg, route oral; conditions: in vivo
Mus musculus [42] = experiment: Reduction in amyloid beta (x to 40) in FVB mouse cortex at 3 mg/kg, po administered as single dose measured at 3 hrs; assay type: functional; set-up: scale not given: the % may be the effect or the level left
[43] = Passive permebility in wild-type MDCK cells; assay type: ADME, cell-based, Canis lupus familiaris; conditions: dog, read-out: permeability

O=S(=O)(c1ccc(C(F)(F)F)nc1)N1c2ccc(F)cc2-c2n[nH]cc2[C@H]1C1CC1
concentration at 3 h [1]: 79 nM
Activity (Mus musculus [2]): 34%
concentration at 3 h [3]: 1000 nM
AUC (Plasma [4]): 0.57 µM
Activity (Mus musculus [5]): -21%
AUC (Plasma [6]): 0.14 µM
concentration at 3 h [7]: 3500 nM
Activity (Mus musculus [8]): 62%
AUC (Plasma [9]): 4.7 µM
IC50 (Gamma-secretase [10]): 1.7 nM
ED50 (CHO [11]): 0.28 nM
ED50 (CHO [12]): 20 nM
Stability (Liver microsomes [13]): 81%
Stability (Liver [14]): 87%
Activity (Mus musculus [15]): -46%
Stability (Liver [16]): 80%
bioavailability [17]: 92%
concentration at 3 h [18]: 2600 nM
Stability (Liver microsomes [19]): 91%
concentration at 3 h [20]: 14 nM
Activity (Mus musculus [21]): -44%
Activity (Homo sapiens): Toxic
concentration at 3 h [22]: 1200 nM
concentration at 3 h [23]: 220 nM
logP [24]: 3.65
Stability (Liver microsomes [25]): 91%
Stability (Liver microsomes [26]): 85%
AUC (Brain [27]): 11 µM
Activity (Mus musculus [28]): 11%
IC50 (Gamma-secretase [29]): 0.1 nM
Ratio ED50 (CHO [30]): 71
Stability (Liver [31]): 90%
concentration at 3 h [32]: 45 nM
AUC (Brain [33]): 0.92 µM
CLH (Rattus norvegicus): 42%
AUC (Brain [34]): 4.1 µM
clearance [35]: 23 mL/min/kg
AUC (Plasma [36]): 12 µM
Activity (Mus musculus [37]): 61%
Stability (Liver [38]): 80%
Ratio IC50 [39]: 17
solubility [40]: 100 µg/mL (≈ 228 µM)
AUC (Brain [41]): 0.24 µM
Activity (Mus musculus [42]): 56%
Papp [43]: 8.8 ×10⁻⁶ cm/s
